# Measured values as given in patent publication US20200383959A1, “THERAPEUTIC AGENT CONTAINING PYRANODIPYRIDINE COMPOUND” (Eisai R&D Management Co., Ltd., priority 2017, published 2020).
# How the values were obtained:
# [1] = tested on: hyperalgesia to mechanical stimulation in STZ models; settings: direct administration to the anterior cingulate cortex; Non Patent Literature 16; cited from earlier work
# AMPA receptor = assay: AMPA-induced intraneuronal calcium entry-suppressing action, primary culture of embryonic rat cerebral cortex neurons; assay type: cell-based; settings: AMPA-induced increase of intracellular calcium, rat cortical neurons; read-out: IC50 for AMPA inhibition
# From the text: [Test Example 1] AMPA-Induced Intraneuronal Calcium Entry-Suppressing Action
# With regard to the AMPA receptor inhibitory action of the compounds, AMPA-induced intraneuronal calcium entry-suppressing action was examined using a primary culture system of embryonic rat cerebral cortex neurons.
# <Culture conditions> Whole fetuses were removed from the uteri of Wistar rats at embryonic day 18 (Charles River Japan) anesthetized with isoflurane. Whole brains were removed from the whole fetuses, and the cerebral cortex was separated in Leibovitz's L-15 medium, or Hanks balanced salt solution containing 20% fetal bovine serum. The resulting material was treated with trypsin/DNase solution at 37° C. for 45 to 60 minutes. After the serum was added to stop the trypsin reaction, the resulting material was centrifuged at 1200 to 1500 rpm for 3 to 5 minutes. After the supernatant was removed, Neurobasal medium (containing 2% B-27 supplement and the like; hereinafter “Neurobasal medium”) was added, and the cells were uniformly dispersed by gently pipetting. The cell suspension was slightly stirred, and then filtered through a nylon mesh filter. Viable cells were counted using a hemocytometer, and diluted with Neurobasal medium to 8 to 10×10^5 cells/mL. […]
# On the day of the assay, the medium was removed and replaced with a calcium measurement solution containing 5 to 10 μmol/L of Fura 2-AM (140 mmol/L sodium chloride, 5 mmol/L potassium chloride, 2 mmol/L magnesium chloride, 3 mmol/L calcium chloride, 24 mmol/L D(+)-glucose, 10 mmol/L HEPES, 1 μmol/L MK-801, pH 7.4), and the cells were treated in a CO2 incubator (5% CO2, 37° C.) for 1 to 2 hours. […] The plates were subsequently placed on the Fluorescence Drug Screening System 6000 (Hamamatsu Photonics K.K.). […] Changes in calcium concentration were measured as the changes in fluorescence intensity at excitation wavelengths of 340 nm and 380 nm (measurement wavelength: 540 nm). The rate of change of the intracellular calcium concentration was calculated in accordance with the following equation: […]
# pain induced by STZ = assay: Rat STZ model, von Frey test; assay type: in vivo
# Procedure: [Test Example 3] Rat STZ Model
# To confirm analgesic effect in an SFN model, an STZ model test with rats was conducted. The effect of the compound on pain induced 2 weeks after administration of STZ was examined.
# Seven-week-old male SD rats (Charles River) were used for the test. To STZ aliquoted in advance into shading bottles, ice-cooled physiological saline (Otsuka Pharmaceutical Factory, Inc.) was added to reach 65 mg/mL, and the resultant was gently inversion-mixed with ice-cooling to dissolve STZ. After dissolving, the resultant was stored under ice-cooling, and used within 20 minutes from the initiation of preparation. About 20 hours after fasting, the animals were anesthetize with isoflurane, and the 65 mg/mL STZ solution was administered to each animal from the tail vein with a volume of […] over about 15 seconds by using a 1 mL syringe and a 26G injection needle. After 14 days after the administration of STZ, body weight and pain response before drug administration were measured (see description below on pain response), and animals for each of which the 50% response threshold to mechanical stimulation was 6 g or lower in von Frey test were selected, and grouped so as to provide no difference in 50% response thresholds and body weight among groups.
# The compound was prepared for oral administration in DMSO:1 mol/L HCl:Cremophor EL:0.5% methylcellulose=10:5:5:80 to reach an administration volume of 10 mL/kg, and orally administered. As a negative control, only the mixed solvent without the compound (Vehicle) was used.
# Evaluation of pain response was performed by using von Frey test under blind conditions, without involving any measurer for pain response in grouping and administration. Measurement of 50% response thresholds by von Frey test was performed in accordance with a method by Chaplan et al. (J Neurosci Methods 1994; 53: 55-63) using von Frey filaments. Each animal was put in a measurement cage with a floor of a metal mesh about 30 minutes before scheduled measurement time, and left to stand to habituate to the environmental change, and after the animal was confirmed to become calm measurement was initiated. Avon Frey filament (bending force: 0.4, 0.6, 1, 2, 4, 6, 8, 15 g; starting from 2 g) was pressed vertically to the center of the sole of the left hind leg for about 6 seconds until the filament bent, and avoidance response (such as putting back the leg) was observed. In accordance with a Dixon's up-down method (Annu Rev Pharmacol Toxicol 1980; 20: 441-462), 50% response thresholds were calculated. Measurement was performed at four points of time: before drug administration on Day 14, and 30 minute, 90 minutes, and 180 minutes after the administration.
# The results were represented as mean±standard deviation. Dunnett's multiple comparison test was used for statistical analysis, and a significance level of 5% was used for both sides in all cases.
# [2] = tested on: tremor induced by harmaline; assay: Rat harmaline model (balance disorder / tremor score); assay type: in vivo; settings: for Tremor score: 20 min before harmaline 20 mg/kg i.p., score 0-3
# Procedure: [Test Example 2] Rat Harmaline Model
# To confirm tremor-suppressing effect, a harmaline model test with rats was conducted. In this model, balance disorder observed after administration of harmaline serves as an evaluation index (Neuroscience Letter, 590, p 84-90 (2015)).
# Four-week-old male SD rats (Charles River) were subjected to the test (two treatments in total, n=5 in each treatment). Balance disorder (one of tremor symptoms) induced by harmaline was used as an evaluation index (the above literature).
# The compound was prepared for oral administration in 0.4% methylcellulose/5% Cremophor/5% 1 N hydrochloric acid/10% dimethylsulfoxide solution to reach an administration volume of 5 mL/kg, and orally administered. As a negative control, only the mixed solvent without the compound (Vehicle) was used. Harmaline (Sigma-Aldrich Co. LLC) was diluted with physiological saline (Otsuka Pharmaceutical Co., Ltd.) to prepare 4 mg/mL harmaline solution. Twenty minutes after administration of the compound, the 4 mg/mL harmaline solution was intraperitoneally administered (dose: 20 mg/kg). Balance disorder was observed during 10 minutes from 5 minutes to 15 minutes after the administration of harmaline, and scored in four grades of 0, 1, 2, and 3.
# The results were represented as mean±standard deviation. Dunnett's multiple comparison test was used for statistical analysis, and results with p<0.05 were determined to be of statistically significant difference.
# [3] = tested on: tremor in a harmaline animal model; settings: Non Patent Literature 7; cited from earlier work
# [4] = tested on: dystonia in the dt^sz model; settings: Non Patent Literature 21; cited from earlier work
# human glioma cell line = settings: Non Patent Literature 34; cited from earlier work
# [5] = pre-administration, statement in words
smiles,measurement,setting,value
"N#Cc1cc2c(cc1[N+](=O)[O-])=NC(=O)C(=O)N=2 [CNQX, 6-cyano-7-nitroquinoxaline-2,3-dione]",Effect on fever and hyperalgesia to mechanical stimulation,[1],suppressed
"N#Cc1c(F)cccc1-c1cc2c(n(-c3cncnc3)c1=O)COc1cccnc1-2 [Compound (II), 2-fluoro-6-(8-oxo-7-(pyrimidin-5-yl)-7,8-dihydro-6H-pyrano[3,2-b:5,4-b′]dipyridin-9-yl)benzonitrile]",IC50,AMPA receptor,29 nM
"N#Cc1c(F)cccc1-c1cc2c(n(-c3cccnc3)c1=O)COc1cc(F)cnc1-2 [Compound (I), 2-fluoro-6-(3-fluoro-8-oxo-7-(pyridin-3-yl)-7,8-dihydro-6H-pyrano[3,2-b:5,4-b′]dipyridin-9-yl)benzonitrile]",50% response threshold,"pain induced by STZ; 0.6 mg/kg oral, Day 14, 30 min",7.3 ± 1.4 g
same,50% response threshold,"pain induced by STZ; 0.6 mg/kg oral, Day 14, 90 min",6.6 ± 1.4 g
same,50% response threshold,"pain induced by STZ; 0.6 mg/kg oral, Day 14, 180 min",5.2 ± 1.1 g
same,50% response threshold,"pain induced by STZ; 0.6 mg/kg oral, Day 14, Pre (before drug administration)",3.6 ± 0.4 g
same,50% response threshold,"pain induced by STZ; 2 mg/kg oral, Day 14, 30 min",9.5 ± 1.4 g
same,50% response threshold,"pain induced by STZ; 2 mg/kg oral, Day 14, 90 min",8.0 ± 1.3 g
same,50% response threshold,"pain induced by STZ; 2 mg/kg oral, Day 14, 180 min",6.4 ± 1.1 g
same,50% response threshold,"pain induced by STZ; 2 mg/kg oral, Day 14, Pre (before drug administration)",3.6 ± 0.3 g
same,50% response threshold,"pain induced by STZ; 6 mg/kg oral, Day 14, 30 min",12.5 ± 1.1 g
same,50% response threshold,"pain induced by STZ; 6 mg/kg oral, Day 14, 90 min",12.1 ± 1.5 g
same,50% response threshold,"pain induced by STZ; 6 mg/kg oral, Day 14, 180 min",9.6 ± 1.4 g
same,50% response threshold,"pain induced by STZ; 6 mg/kg oral, Day 14, Pre (before drug administration)",3.6 ± 0.4 g
same,Analgesic effect,pain induced by STZ; [5],Significant analgesic effect
same,Tremor score,[2]; 1 mg/kg oral,1.3 ± 0.2
same,Tremor score,[2]; 2 mg/kg oral,0.6 ± 0.3
same,Tremor score,[2]; 4 mg/kg oral,0.4 ± 0.2
same,Effect on tremor scores,[2]; [5],statistically significant reduction of tremor scores
same,IC50,AMPA receptor,19.4 nM
"NS(=O)(=O)c1cccc2c1c([N+](=O)[O-])cc1[nH]c(=O)c(=O)[nH]c12 [NBQX, 2,3-dioxo-6-nitro-1,2,3,4-tetrahydrobenzo[f]quinoxaline-7-sulfonamide]",Effect on tremor,[3],suppresses tremor
same,Anti-dystonia action,[4],anti-dystonia action
O=C(O)Cn1c(=O)c(=O)[nH]c2cc([N+](=O)[O-])c(-n3ccnc3)cc21 [YM872],Antitumor effect,human glioma cell line,antitumor effect
"Cc1ncc(-n2c3c(cc(-c4cccc(F)c4C#N)c2=O)-c2ncccc2OC3)cn1 [Compound (III), 2-fluoro-6-(7-(2-methylpyrimidin-5-yl)-8-oxo-7,8-dihydro-6H-pyrano[3,2-b:5,4-b′]dipyridin-9-yl)benzonitrile]",IC50,AMPA receptor,44.3 nM
